Laboratory results as given in ChEMBL document CHEMBL4043100, “Antitrichomonal activity of δ opioid receptor antagonists, 7-benzylidenenaltrexone derivatives” (Bioorg Med Chem, 2017).
Values after ≈ are worked out from the molar mass of the structure shown.

Legend:
[1] = biological target: Mu-type opioid receptor (Homo sapiens, UniProt P35372); test: Displacement of [3H]DAMGO from human mu opioid receptor expressed in CHO cell membranes by microbeta scintillation counting analysis
[2] = biological target: Kappa-type opioid receptor (Homo sapiens, UniProt P41145); test: Displacement of [3H]U-69,593 from human kappa opioid receptor expressed in CHO cell membranes by microbeta scintillation counting analysis
[3] = system: Trichomonas vaginalis; test: Antimicrobial activity against Trichomonas vaginalis after 48 hrs by neutral red staining based invert microscopic analysis; format: functional
[4] = biological target: Delta-type opioid receptor (Homo sapiens, UniProt P41143); test: Displacement of [3H]DPDPE from human delta opioid receptor expressed in CHO cell membranes by microbeta scintillation counting analysis
[5] = Antimicrobial activity against Tritrichomonas mobilensis after 48 hrs by neutral red staining based invert microscopic analysis; format: functional

Delta-type opioid receptor, sequence (P41143 whole entry): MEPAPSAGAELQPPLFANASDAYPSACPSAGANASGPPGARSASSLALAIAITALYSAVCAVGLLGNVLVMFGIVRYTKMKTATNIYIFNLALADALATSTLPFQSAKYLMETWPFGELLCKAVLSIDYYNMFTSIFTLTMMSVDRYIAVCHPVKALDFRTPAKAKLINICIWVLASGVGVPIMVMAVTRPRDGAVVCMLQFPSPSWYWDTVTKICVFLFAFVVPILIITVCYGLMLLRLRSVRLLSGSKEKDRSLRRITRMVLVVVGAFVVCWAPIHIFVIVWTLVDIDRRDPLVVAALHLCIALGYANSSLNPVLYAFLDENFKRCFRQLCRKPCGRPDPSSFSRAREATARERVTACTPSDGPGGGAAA
Kappa-type opioid receptor, sequence (P41145 whole entry): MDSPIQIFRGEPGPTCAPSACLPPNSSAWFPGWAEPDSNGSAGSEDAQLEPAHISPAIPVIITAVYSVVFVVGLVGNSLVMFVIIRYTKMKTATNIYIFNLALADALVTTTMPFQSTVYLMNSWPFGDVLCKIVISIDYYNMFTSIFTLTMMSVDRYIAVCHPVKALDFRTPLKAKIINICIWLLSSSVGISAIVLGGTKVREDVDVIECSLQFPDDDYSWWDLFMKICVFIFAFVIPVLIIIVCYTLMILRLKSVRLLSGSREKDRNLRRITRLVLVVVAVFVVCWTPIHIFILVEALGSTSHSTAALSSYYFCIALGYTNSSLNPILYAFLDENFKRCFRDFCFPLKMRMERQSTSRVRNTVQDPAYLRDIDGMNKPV
Mu-type opioid receptor, sequence (P35372 whole entry): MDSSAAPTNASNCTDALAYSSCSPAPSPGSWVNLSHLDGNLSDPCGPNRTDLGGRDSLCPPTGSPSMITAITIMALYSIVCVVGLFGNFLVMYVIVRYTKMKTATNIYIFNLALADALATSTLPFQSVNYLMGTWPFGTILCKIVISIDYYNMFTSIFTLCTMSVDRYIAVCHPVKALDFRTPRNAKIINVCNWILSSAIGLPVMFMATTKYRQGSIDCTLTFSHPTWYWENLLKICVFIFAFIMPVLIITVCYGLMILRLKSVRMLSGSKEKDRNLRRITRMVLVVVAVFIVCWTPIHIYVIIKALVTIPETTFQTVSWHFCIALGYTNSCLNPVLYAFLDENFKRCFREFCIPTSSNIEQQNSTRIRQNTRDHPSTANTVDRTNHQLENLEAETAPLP

Compound | Ki ([1]; read-out: Ki) | Ki ([2]; read-out: Ki) | IC50 [3] | MIC [3] | Ki ([4]; read-out: Ki) | further results
O=C1/C(=C/c2ccc(F)cc2)C[C@@]2(O)[C@H]3Cc4ccc(O)c5c4[C@@]2(CCN3CC2CC2)[C@H]1O5 | 20.9 nM | 108 nM | 12.8 µM | 20 µM (≈ 8.95 µg/mL) | 34.5 nM | –
H-AFEVVG-NH2 | – | – | – | > 320 µM | – | –
N#Cc1ccc(/C=C2\C[C@@]3(O)[C@H]4Cc5ccc(O)c6c5[C@@]3(CCN4CC3CC3)[C@@H](O6)C2=O)cc1 | 32.7 nM | 209 nM | 13.2 µM | 20 µM (≈ 9.09 µg/mL) | 18.1 nM | –
Oc1ccc2c3c1O[C@H]1c4[nH]c5ccccc5c4C[C@@]4(O)[C@@H](C2)N(CC2CC2)CC[C@]314 [NALTRINDOLE] | – | – | – | 80 µM (≈ 33.2 µg/mL) | – | –
O=C1C(Cc2ccc(F)cc2)C[C@@]2(O)[C@H]3Cc4ccc(O)c5c4[C@@]2(CCN3CC2CC2)[C@H]1O5 (some centres not stated) | – | – | – | > 320 µM | – | –
Cc1ncc([N+](=O)[O-])n1CCO [METRONIDAZOLE] | – | – | 5.2 µM | 10 µM (≈ 1.71 µg/mL) | – | Ki [1]: Not Active; Ki [2]: Not Active; Ki [4]: Not Active; MIC [5]: 2.5 µM (≈ 0.428 µg/mL)
N#Cc1cccc(/C=C2\C[C@@]3(O)[C@H]4Cc5ccc(O)c6c5[C@@]3(CCN4CC3CC3)[C@@H](O6)C2=O)c1 | – | – | 18 µM | 40 µM (≈ 18.2 µg/mL) | – | –
COc1ccc(CC2C[C@@]3(O)[C@H]4Cc5ccc(O)c6c5[C@@]3(CCN4CC3CC3)[C@@H](O6)C2=O)cc1 (some centres not stated) | – | – | – | > 320 µM | – | –
O=C1/C(=C/c2ccco2)C[C@@]2(O)[C@H]3Cc4ccc(O)c5c4[C@@]2(CCN3CC2CC2)[C@H]1O5 | – | – | – | 160 µM (≈ 67.1 µg/mL) | – | –
O=C1/C(=C/c2ccccc2Br)C[C@@]2(O)[C@H]3Cc4ccc(O)c5c4[C@@]2(CCN3CC2CC2)[C@H]1O5 | – | – | – | 80 µM (≈ 40.7 µg/mL) | – | –
C=CCN1C[C@H](C)N([C@H](c2ccc(C(=O)N(CC)CC)cc2)c2cccc(OC)c2)C[C@H]1C [SNC-80] | – | – | – | > 320 µM | – | –
COc1ccc2c3c1O[C@H]1C(=O)C(Cc4ccccc4)C[C@@]4(O)[C@@H](C2)N(CC2CC2)CC[C@]314 (some centres not stated) | – | – | – | > 320 µM | – | –
CN(C)c1ccc(/C=C2\C[C@@]3(O)[C@H]4Cc5ccc(O)c6c5[C@@]3(CCN4CC3CC3)[C@@H](O6)C2=O)cc1 | 17.2 nM | 28.6 nM | 13.2 µM | 20 µM (≈ 9.45 µg/mL) | 3.72 nM | –
O=C1/C(=C/c2ccccc2F)C[C@@]2(O)[C@H]3Cc4ccc(O)c5c4[C@@]2(CCN3CC2CC2)[C@H]1O5 | 12.8 nM | 35.1 nM | 18.6 µM | 20 µM (≈ 8.95 µg/mL) | 2.94 nM | –
O=C1/C(=C/c2ccccc2C(F)(F)F)C[C@@]2(O)[C@H]3Cc4ccc(O)c5c4[C@@]2(CCN3CC2CC2)[C@H]1O5 | – | – | – | 80 µM (≈ 39.8 µg/mL) | – | –
O=C1/C(=C/c2ccc(Br)cc2)C[C@@]2(O)[C@H]3Cc4ccc(O)c5c4[C@@]2(CCN3CC2CC2)[C@H]1O5 | 5.04 nM | 70.4 nM | 11.2 µM | 20 µM (≈ 10.2 µg/mL) | 4.19 nM | –
O=C1/C(=C/c2ccc(Cl)cc2)C[C@@]2(O)[C@H]3Cc4ccc(O)c5c4[C@@]2(CCN3CC2CC2)[C@H]1O5 | 6.13 nM | 78.6 nM | 12.7 µM | 20 µM (≈ 9.28 µg/mL) | 8.22 nM | –
CN(C(=O)/C=C/c1ccoc1)[C@@H]1CC[C@@]2(O)[C@H]3Cc4ccc(O)c5c4[C@@]2(CCN3CC2CC2)[C@H]1O5 [NALFURAFINE] | – | – | – | 80 µM (≈ 38.1 µg/mL) | – | –
CC1(C)SSC(C)(C)[C@H](NC(=O)[C@@H](N)Cc2ccc(O)cc2)C(=O)NCC(=O)N[C@@H](Cc2ccccc2)C(=O)N[C@@H]1C(=O)O | – | – | – | > 320 µM | – | –
Oc1ccc2c3c1O[C@H]1c4[nH]c5c(c4C[C@@]4(O)[C@@H](C2)N(CC2CC2)CC[C@]314)C[C@@]1(O)[C@H]2Cc3ccc(O)c4c3[C@@]1(CCN2CC1CC1)[C@H]5O4 [NORBINALTORPHIMINE] | – | – | – | > 320 µM | – | –

Compound | Ki ([1]; read-out: Ki) | Ki ([2]; read-out: Ki) | IC50 [3] | MIC [3] | Ki ([4]; read-out: Ki) | further results
COC(=O)/C=C/C(=O)N[C@@H]1CC[C@@]2(O)[C@H]3Cc4ccc(O)c5c4[C@@]2(CCN3CC2CC2)[C@H]1O5 | – | – | – | 80 µM (≈ 36.4 µg/mL) | – | –
O=C1/C(=C/c2ccnc3ccccc23)C[C@@]2(O)[C@H]3Cc4ccc(O)c5c4[C@@]2(CCN3CC2CC2)[C@H]1O5 | – | – | 17.2 µM | 40 µM (≈ 19.2 µg/mL) | – | –
O=C1/C(=C/c2cccc(F)c2)C[C@@]2(O)[C@H]3Cc4ccc(O)c5c4[C@@]2(CCN3CC2CC2)[C@H]1O5 | 10.7 nM | 49 nM | 14.2 µM | 20 µM (≈ 8.95 µg/mL) | 8.37 nM | –
COc1ccc(/C=C2\C[C@@]3(O)[C@H]4Cc5ccc(OC)c6c5[C@@]3(CCN4CC3CC3)[C@@H](O6)C2=O)cc1 | – | – | – | 80 µM (≈ 37.9 µg/mL) | – | –
O=C1/C(=C/c2ccccc2Cl)C[C@@]2(O)[C@H]3Cc4ccc(O)c5c4[C@@]2(CCN3CC2CC2)[C@H]1O5 | – | – | – | > 320 µM | – | –
O=C1/C(=C/c2cccc(C(F)(F)F)c2)C[C@@]2(O)[C@H]3Cc4ccc(O)c5c4[C@@]2(CCN3CC2CC2)[C@H]1O5 | – | – | – | 80 µM (≈ 39.8 µg/mL) | – | –
COc1ccc2c3c1O[C@H]1C(=O)/C(=C/c4ccc(F)cc4)C[C@@]4(O)[C@@H](C2)N(CC2CC2)CC[C@]314 | – | – | – | 80 µM (≈ 36.9 µg/mL) | – | –
O=C1C(Cc2ccccc2)C[C@@]2(O)[C@H]3Cc4ccc(O)c5c4[C@@]2(CCN3CC2CC2)[C@H]1O5 (some centres not stated) | – | – | – | 80 µM (≈ 34.5 µg/mL) | – | –
O=C1/C(=C/c2cccs2)C[C@@]2(O)[C@H]3Cc4ccc(O)c5c4[C@@]2(CCN3CC2CC2)[C@H]1O5 | – | – | 21.6 µM | 40 µM (≈ 17.4 µg/mL) | – | –
COc1ccc2c3c1O[C@H]1C(=O)/C(=C/c4ccccc4)C[C@@]4(O)[C@@H](C2)N(CC2CC2)CC[C@]314 | 499 nM | > 1000 nM | – | 80 µM (≈ 35.5 µg/mL) | 100 nM | –
COc1ccc(/C=C2\C[C@@]3(O)[C@H]4Cc5ccc(O)c6c5[C@@]3(CCN4CC3CC3)[C@@H](O6)C2=O)cc1 | 5.16 nM | 27.8 nM | 14.1 µM | 20 µM (≈ 9.19 µg/mL) | 1.8 nM | –
O=C1/C(=C/c2ccccc2)C[C@@]2(O)[C@H]3Cc4ccc(O)c5c4[C@@]2(CCN3CC2CC2)[C@H]1O5 [BNTX] | 11 nM | 32.8 nM | 21.7 µM | 40 µM (≈ 17.2 µg/mL) | 2.81 nM | MIC [5]: > 320 µM
O=C1/C(=C/c2ccc(I)cc2)C[C@@]2(O)[C@H]3Cc4ccc(O)c5c4[C@@]2(CCN3CC2CC2)[C@H]1O5 | 19.9 nM | 126 nM | 10.5 µM | 20 µM (≈ 11.1 µg/mL) | 2.15 nM | MIC [5]: > 320 µM
O=C1/C(=C/c2c(Cl)cccc2Cl)C[C@@]2(O)[C@H]3Cc4ccc(O)c5c4[C@@]2(CCN3CC2CC2)[C@H]1O5 | – | – | – | > 320 µM | – | –
O=C1/C(=C/c2ccc(C(F)(F)F)cc2)C[C@@]2(O)[C@H]3Cc4ccc(O)c5c4[C@@]2(CCN3CC2CC2)[C@H]1O5 | 192 nM | 176 nM | 13.7 µM | 20 µM (≈ 9.95 µg/mL) | 83.9 nM | –
O=C1CC[C@@]2(O)[C@H]3Cc4ccc(O)c5c4[C@@]2(CCN3CC2CC2)[C@H]1O5 [NALTREXONE] | – | – | – | 80 µM (≈ 27.3 µg/mL) | – | –
Oc1ccc2c3c1O[C@H]1c4oc5ccccc5c4C[C@@]4(O)[C@@H](C2)N(CC2CC2)CC[C@]314 [NALTRIBEN] | – | – | – | 80 µM (≈ 33.2 µg/mL) | – | –
COc1ccccc1/C=C1\C[C@@]2(O)[C@H]3Cc4ccc(O)c5c4[C@@]2(CCN3CC2CC2)[C@@H](O5)C1=O | – | – | – | > 320 µM | – | –
CN1CC[C@]23Cc4nc5ccccc5cc4C[C@@]2(O)[C@H]1Cc1ccc(O)cc13 | – | – | – | 80 µM (≈ 29.8 µg/mL) | – | –
COc1cccc(/C=C2\C[C@@]3(O)[C@H]4Cc5ccc(O)c6c5[C@@]3(CCN4CC3CC3)[C@@H](O6)C2=O)c1 | – | – | – | 80 µM (≈ 36.8 µg/mL) | – | –
